Test results published in patent US20240327421A1 (Marquette University, priority 2017, published 2024).
“Also recorded” adds a separate entry of the source.

Experiments:
[1] = target: T1, human ER Alpha ligand-binding domain (LBD) (Homo sapiens, UniProt P03372); test: TR-FRET competitive binding assay, ERα LBD; settings: displacement of fluorescent tracer from ERα LBD
T1 construct: purchased Thermo Fisher Scientific
T1 sequence (P03372 311-547 limits assumed): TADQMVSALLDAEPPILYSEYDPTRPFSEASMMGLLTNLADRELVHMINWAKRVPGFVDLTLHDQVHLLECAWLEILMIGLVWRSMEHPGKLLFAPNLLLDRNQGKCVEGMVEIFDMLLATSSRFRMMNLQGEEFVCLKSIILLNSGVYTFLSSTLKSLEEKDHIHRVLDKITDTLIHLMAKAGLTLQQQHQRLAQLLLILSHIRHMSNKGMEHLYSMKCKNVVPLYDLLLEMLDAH
From the text: TR-FRET Assay. LanthaScreen® TR-FRET ER Alpha and Beta Competitive Binding Assay kits from Thermo Fisher Scientific were used to perform the TR-FRET assays. These included a terbium-labeled anti-GST antibody, a fluorescent small molecule ER Alpha or Beta ligand as a “tracer”, and a human ER Alpha or Beta ligand -binding domain (LBD) that is tagged with glutathione-S-transferase (GST) in a homogenous mix- and -read assay format.
The TR-FRET assay employs a Tb-anti-GST antibody that binds to a GST tag, and a fluorescently labeled estrogen (tracer) binds in the active site pocket. The TR-FRET signal obtained decreases when competitor compounds displace the fluorescently labeled tracer. Assays were performed according to kit instructions. Briefly, 1:5 dilution series of compounds were made with DMSO, then diluted in assay buffer such that the highest concentration tested in the assay was 50 μM for ERβ and 50 μM for ERα and DMSO was 1%. […] TR-FRET signal was read on a SpectraMax M5 (Molecular Devices) set-up according to Thermo Fisher Scientific machine settings (excitation of 332 nm, emissions 518 nm and 488 nm with a 420 nm cutoff, 50 μs integration delay, 400 μs integration time, and 100 flashes per read). The TR-FRET ratio was calculated using the SoftmaxPro software by dividing the emission at 518 nm (fluorescein) by the emission at 488 nm (Terbium). […]

[2] = target: T2, Androgen Receptor (AR) (Homo sapiens, UniProt P10275); test: GeneBLAzer nuclear hormone receptor specificity assay, AR; type: cell-based; settings: 0.25 to 25 μM; listed as ISP358-2
T2 sequence (P10275 669-900 limits assumed): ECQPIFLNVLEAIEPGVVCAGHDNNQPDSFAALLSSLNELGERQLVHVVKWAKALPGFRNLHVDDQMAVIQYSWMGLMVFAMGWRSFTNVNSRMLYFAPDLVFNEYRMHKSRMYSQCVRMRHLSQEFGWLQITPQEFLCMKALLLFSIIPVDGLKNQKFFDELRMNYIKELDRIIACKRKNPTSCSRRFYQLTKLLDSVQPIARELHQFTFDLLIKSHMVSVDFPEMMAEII

[3] = tested on: ovariectomized mice; test: Bloodwork chemistry and hematology panel; type: in vivo; settings: single IP injection, 0.5 or 5 mg/kg
Description: FIG. 14. Bloodwork panel for tissue pathology analysis for ISP358-2. Bloodwork hematology analysis was performed by Animal Reference Pathology, LLC in Salt Lake City, Utah (animalreferencepathology.com). Reference ranges are from Charles River Laboratories for CrL: Wi (Han) female 8-16 weck old rats. Blood samples were taken via cardiac puncture at the same time point and treatment conditions as in FIGS. 13A-13M. […] In some cases hemolysis occurred, likely due to the blood collection procedure, which precluded analysis for those samples, thus, samples sizes in the analysis were 6-8. The mean and standard error of the mean of cach group is listed in the table, along with outcomes from one-way ANOVA statistical analysis. […] The hematology samples were analyzed by a Sysmex XT-2000iV using veterinary software and the rat species setting.^3 The reagents for individual assays were sourced from either Seimens, RandOx or Sekisui.

[4] = tested on: MCF-7 cells; test: MTT assay for proliferation of MCF-7 cells; type: cell-based; settings: 24 h treatment, 0.001-10 μM
Description: FIGS. 15A-15C. MTT assay for proliferation of MCF-7 cells. Cells were seeded into 96-well plates and incubated for 24 hr before treatment was applied. […] Absorbance values were converted to cell counts using a standard growth curve.
MTT Assays. Human breast cancer cells (MCF-7) were provided by Dr. Manish Patankar (Department of Obstetrics and Gynecology, University of Wisconsin-Madison). Cells were cultured in Eagle's Minimum Essential Media (EMEM) supplemented with 10% fetal bovine serum and 0.01 mg/mL human recombinant insulin in 5% CO2 at 37° C. A seeding density of 7,000 cells per well was chosen and applied to a 96 well plate. […] Treated cells were incubated for 24 hours after which an MTT (3-(4,5-Dimethylthiazol-2-yl)-2,5-Diphenyltetrazolium Bromide) assay was performed by adding 20% MTT in EMEM solution to cach well and incubating for 4 hours. Formazan crystal metabolites were dissolved using 100% DMSO and absorbance was read at OD 570 nm as well as a reference of 650 nm using a VMax kinetic microplate reader (Molecular Devices, CA) running Softmax Pro version 6.1. Absorbances were converted to cell number using a standard growth curve.

[5] = tested on: ovariectomized mice; test: Object placement (spatial memory consolidation) test; settings: for object placement: spatial memory consolidation after long-term ovariectomy: oral gavage 4 months after ovariectomy, same doses (0.5 or 5 mg/kg ISP358-2, 0.05 mg/kg DPN), preliminary

OC[C@H]1CC[C@H](c2ccc(O)cc2)CC1 [Compound 16]
IC50 [1]: 289 ± 92 nM | agonist activity, AR [2]: not an agonist; also recorded: no significant off-target activity | bloodwork chemistry and hematology vs reference ranges [3]: do not show significant deviations from expected reference ranges | proliferation of MCF-7 cells vs untreated control [4]: No significant changes in the growth of MCF-7 cells | proliferation of MCF-7 cells vs untreated control ([4]; listed as ISP358-2): neither ISP358-2 nor DPN showed any significant proliferation | object placement: time with moved object / memory consolidation ([5]; IP injection, 0.5 mg/kg, listed as ISP358-2, 0.5 mg/kg): spent significantly more time than chance with the moved object; also recorded: most effectively enhanced consolidation; also recorded: enhanced memory consolidation | object placement: time with moved object / memory consolidation ([5]; IP injection, 5 mg/kg, listed as ISP358-2, 5 mg/kg): spent significantly more time than chance with the moved object; also recorded: also enhanced OP memory consolidation | object placement: time with moved object / memory consolidation ([5]; dorsal hippocampal infusion, 10 pg/hemisphere, tested 24 h after training, chance 15 s): did not spend significantly more time than chance with the moved object | object placement: time with moved object / memory consolidation ([5]; dorsal hippocampal infusion, 100 pg/hemisphere, tested 24 h after training, listed as ISP358-2): spent significantly more time than chance with the moved object; also recorded: enhanced memory consolidation; also recorded: significantly increased time was spent | object placement: time with moved object / memory consolidation ([5]; dorsal hippocampal infusion, 1 ng/hemisphere, tested 24 h after training, listed as ISP358-2): spent significantly more time than chance with the moved object; also recorded: enhanced memory consolidation; also recorded: significantly increased time was spent | object placement: spatial memory consolidation after long-term ovariectomy [5]: did not enhance spatial memory consolidation | object placement: spatial memory consolidation after long-term ovariectomy ([5]; listed as ISP358-2): neither DPN nor ISP358-2 affected memory | object placement: time with moved object / memory consolidation ([5]; oral gavage, 0.5 mg/kg, within 1 month of ovariectomy, listed as ISP358-2, 0.5 mg/kg): exhibited a significant preference for the moved object relative to chance; also recorded: enhanced memory consolidation | object placement: time with moved object / memory consolidation ([5]; oral gavage, 5 mg/kg, within 1 month of ovariectomy, listed as ISP358-2, 5 mg/kg): exhibited a significant preference for the moved object relative to chance; also recorded: most effective; also recorded: enhanced memory consolidation
